One series can be described thus: in vitro. The arrangement: Cytotoxicity in iPSC-derived pneumocytes, CC50. The conditions noted are these: human, ipsc-derived pneumocytes; ASAP-0008327-001=ASAP-0011176-001; read-out: 50.0.
The subject of a further series is MERS-CoV. In kind it is cell-based. The note with it: Vero E6/TMPRSS2 MERS-CoV antiviral effect with P-gp inhibitor.
Series [1] addresses HiBiT-tagged nsp3-mac1 in HEK293 cells (Severe acute respiratory syndrome coronavirus 2, UniProt P0DTD1). As to the kind of experiment: HiBiT Cellular Thermal Shift Assay / isothermal dose response thermal shift assay (ITDRF CETSA). The conditions noted are these: fixed temperature 50.6°C. In kind it is cell-based, SARS-CoV-2. Here is the method: A PCR product encoding SARS Cov-2 macrodomain residues 2 to 176 was cloned into the XhoI and BamHI restriction sites of the pBIT3.1-N vector (Promega) which has an N-terminal 11 amino acid HiBiT tag.
A PCR product encoding SARS Cov-2 macrodomain residues 1 to 176 was cloned into the HindIII and XhoI restriction sites of the pBIT3.1-C vector(Promega) which has an C-terminal 11 amino acid HiBiT tag.
Both constructs were evaluated for CETSA experiments and found to give similar results. For the results described the CHIBIT tag was used.
HiBiT Cellular Thermal Shift Assay (HiBiT-CETSA). To assess the engagement of nsp3-mac1 in intact cells, a HiBiT Cellular Thermal Shift Assay was conducted as described by Ramachandran et al. ([23]). The Nano-Glo HiBiT lytic detection system (Promega) was used according to the manufacturer’s instructions. Briefly, HEK293 cells were reverse-transfected with HiBiT-tagged nsp3-mac1 at a concentration of 400,000 cells/mL using the FuGENE transfection reagent (Promega). Following a 24-hour incubation period, the cells were trypsinized and resuspended in assay medium at the same concentration.
For CETSA, the cells were divided into two groups: one treated with 30 μM of the compounds and the other with DMSO as a control. […] The luminescence signals were measured using a PHERAstar FSX and analyzed with GraphPad Prism software (v.9 or v.10).
A general note: HiBiT is a short tag that completes a luciferase, so light tracks the accessible tagged protein.

The text below walks through data of article doi:10.1101/2024.08.19.608619, “Discovery of potent SARS-CoV-2 nsp3 macrodomain inhibitors uncovers lack of translation to cellular antiviral response” (bioRxiv, 2024).

As a reminder, the EC50 is the concentration giving half of the maximal effect. For orientation: EC90 means the point of the concentration-response curve where the effect stands at 90%. Low values mean an effect from little substance, high ones a need for much substance.

On to `CNCc1cc(-c2cc3c(N[C@@H](c4ccc5c(c4)S(=O)(=O)CCC5)C(C)C)ncnc3[nH]2)co1` [ASAP-0011176], for which, in the series “in vitro”, the CC50 is > 50 µM.

In the case of `Cn1ncc(-c2cc3c(N[C@@H](c4ccc5c(n4)OCCO5)C(C)(C)C)ncnc3[nH]2)c1C#N` [ASAP-0011221], in the series on MERS-CoV, the EC50 was > 5 µM and the EC90 is > 5 µM. The perc_max_measured in the series on MERS-CoV (maximum measured response) came to 128.492%. This compound displayed a perc_min_measured with MERS-CoV (minimum measured response) of 99.797%.

With `Cc1nn(C)cc1-c1cc2c(NC(c3ccc4c(c3)S(=O)(=O)CCC4)C(C)C)ncnc2[nH]1` (stereo not drawn) [ASAP-0011446], the EC50 in series [1] stood at 0.014 µM.
